The nature of data set [1]: Cytotoxicity against human MT4 cells assessed as reduction in cell viability after 5 days by MTT assay. In kind it is cell-based. In general terms: Tetrazolium assays rely on reduction of a dye to a coloured formazan, in cell work by metabolically active cells.
A short description of data set [2]: Therapeutic index, ratio of CC50 for human MT4 cells to EC50 for HIV1 3B […] infected in human MT4 cells. Format: toxicity, cell-based. The following applies: read-out: Ratio CC50/EC50.

SMILES strings stand for the structures.

The term CC50 denotes the concentration giving 50% cytotoxicity.

For `CC(C)[C@H](NC(=O)N(C)Cc1c[se]c(-c2ccccc2)n1)C(=O)N[C@@H](Cc1ccccc1)C[C@H](O)[C@H](Cc1ccccc1)NC(=O)OCc1cncs1`, in data set [1], the CC50 at 120 h was 21 µM. Further, in data set [2], the selectivity ratio turned out to be 124.
Take `CC(C)c1nc(CN(C)C(=O)N[C@H](C(=O)N[C@@H](Cc2ccccc2)C[C@H](O)[C@H](Cc2ccccc2)NC(=O)OCc2cncs2)C(C)C)c[se]1`: in data set [1], the CC50 at 120 h came out at 42 µM. For the same compound, the selectivity ratio in data set [2] was 76.

These data come from ChEMBL document CHEMBL4118282 (Bioorg Med Chem Lett, 2018).
